The test system of data set [1] is TMEM27. The data set is described as follows: Inhibition of N-glycosylation of TMEM27 in MIN6 cells (SDS-PAGE, immunoblot). The format is cell-based. The conditions noted are these: increasing concentrations of tunicamycin, 12 hours at 37° C. Here is the method: (§1) (A) MIN6 cells were incubated with increasing amounts of tunicamycin, which inhibits glycosylation at asparagine residues. Addition of DMSO alone to the cells had no effect. (B) Supernatant from MIN6 cells was incubated with N-glycanase. […] Secreted protein was detected with anti-Col-3 antibody. (C) MIN6 cell lysates were incubated with either PBS or cross-linking reagents DTBP and BMH. […] Under reducing conditions, only the monomer was detected in PBS and DTBP-treated cell lysates. In contrast, the dimer persisted in BMH-treated samples as BMH cross-linking could not be reversed.
MIN6 cells that express pV5-TMEM27 were incubated with indicated concentrations of tunicamycin (Sigma) dissolved in DMSO and with DMSO alone for 12 hours at 37° C. Cell lysates were then subjected to SDS-PAGE and immunoblotting with anti-V5 antibody.
TMEM27 contains two predicted N-glycosylation sites at amino acid residues 76 and 93. MIN6 cells were treated with tunicamycin, which inhibits N-glycosylation. Cells were incubated in the presence of increasing concentrations of tunicamycin, and protein extracts were prepared and analyzed by SDS-PAGE and immunoblotting.
Background: A western blot detects proteins with antibodies after separation by electrophoresis.

Data set [2] has as its system TMEM27. The data set is described as follows: Shedding of TMEM27 from MIN6 cells (immunoblot of supernatant, N-terminus; anti-V5 C-terminus as control). The format is cell-based. The conditions noted are these: 2 hrs in OPTI-MEM. Here is the method:
The pancreatic beta-cell line MIN6 was cultured with DMEM medium containing 25 mM glucose, 15% fetal bovine serum, and 5.5 μM 2-mercaptoethanol. MIN6 cells were plated at 50% confluency in 12 well plates and incubated for 24 hrs. Cells were washed with OPTI-MEM (Invitrogen) and incubated with either DMSO or protease inhibitor BB94 (1 μM) for 15 minutes in OPTI-MEM at 37° C. After the above incubation, cells were incubated with DMSO, PMA (Sigma P8139), BB94, or PMA+BB94 for 2 hrs in OPTI-MEM. 30 μl of each supernatant was collected for SDS-PAGE. Immunoblots were performed using anti-TMEM27 antibodies recognizing the N-terminus (cleaved portion) of TMEM27 (FIG. 8). […] Since BB94 is a known inhibitor of serine proteases and metalloproteases, this may indicate that TMEM27 is a substrate of a protease belonging to serine protease or metalloprotease family.

Data set [3] deals with the molecule itself. The data set is described as follows: chemical cross-linking (DTBP, BMH) of MIN6 cell lysates, reducing and non-reducing SDS-PAGE, immunoblot. As for the experimental part:
as §1
Chemical cross-linking experiments testing whether TMEM27 protein exists as a multimer were conducted. MIN6 cell extracts were incubated in the presence of two different cross-linking reagents; BMH (bismaleimidohexane), a membrane-permeable, non-cleavable compound and DTBP (dimethyl 3,3′-dithiobispropionimidate), a membrane permeable, cleavable compound prior to SDS-PAGE analysis that was performed under reducing and non-reducing conditions. […] However, the protein dimers disappeared under reducing conditions in the presence of DTBP (FIG. 3b). The results were similar in MIN6 cells that endogenously express TMEM27 and in N2A cells that were transiently transfected with TMEM27 expression vector (data not shown).

On to tunicamycin, for which, in the data set with TMEM27 [1], the “effect on TMEM27 bands (N-glycosylation)” value is reported as “Two bands with increased electrophoretic mobility appeared”.

As for `CCCCCCCCCCCCCC(=O)O[C@@H]1[C@@H](C)[C@@]2(O)[C@@H](C=C(CO)C[C@]3(O)C(=O)C(C)=C[C@@H]23)[C@@H]2C(C)(C)[C@]12OC(C)=O` [PMA, phorbol 12-myristate 13-acetate], in the data set with TMEM27 [2], the “expression levels of TMEM27 (C-terminus, anti-V5 antibody control)” value is reported as “do not change the expression levels of TMEM27”.

B1: TMEM27 full-length protein (other, mouse, UniProt Q9ESG4 15-222, looked up)
chain: ELCHPDAENAFKVRLSIRAALGDKAYVWDTDQEYLFRAMVAFSMRKVPNREATEISHVLLCNITQRVSFWFVVTDPSNNYTLPAAEVQSAIRKNRNRINSAFFLDDHTLEFLKIPSTLAPPMEPSVPVWIIVFGVIFCIVTVAIALLVLSGIRQRRRNNKGPPGVEDAEDKCENIITIENGIPCDPLDMKGGHINDGFLTEDERLTPL
modifications: N-glycosylated (predicted N-glycosylation sites at amino acid residues 76 and 93)
notes: Detected in cell or islet lysates (Western blot) and in fixed, permeabilized MIN6 cells; It also differs from the immunizing peptides, so it is not used here; the transgenic construct uses murine cDNA; also called TMEM protein
For B1, the binding result in data set [3] is on record as “binds”.

The values are drawn from patent US20100119489A1, “Stimulation of Pancreatic Beta Cell Proliferation” (priority 2005, published 2010).
